What was measured:
human MEK1 = human MEK1 (Homo sapiens, UniProt Q02750); experiment: MEK-1 Enzyme Assay (LANCE-HTRF); assay type: biochemical; details: 100 nM MEK1, 15 μM ATP, 300 nM ERK2, two hours; read-out: MEK inhibition
Method: Assay 1: MEK-1 Enzyme Assay (LANCE-HTRF)
The activity of the compounds of the present invitation may be determined by the following procedure; Inhibition of human MEK1 kinase activity was monitored with a homogenous, fluorescence based assay. The assay uses time resolved fluorescence resonance energy transfer to probe for phosphorylation of ERK1 by MEK1. The assay is carried out in low volume 96 well microtiterplates. […] After two hours, 5 nM Europium-anti-PY20 (Perkin Elmer) and 50 nM Anti-GST-Allophycocyanin (CisBio) in buffer containing 50 mM EDTA and 0.05% BSA are added and the reaction incubated for one hour in the dark. Time-resolved fluorescence is measured using a LJL-Analyst (Molecular Devices) with an excitation wavelength of 340 nm and an emission wavelength of 665 nm. The final concentration of DMSO is 2%.

[1] = tested on: human melanoma A375 cells; experiment: Tumor cell proliferation assay (ATP Lite), A375; assay type: cell-based; details: A-375, 96 h, 4 days
Method: (§1) Assay 2: Tumor Cell Proliferation Assays (ATP Lite)
(§2) Murine colon C26, human melanoma A375 and MeI5 or human pancreatic MiaPaCa-2 cells were plated in 96 well Corning white plates (1500 cells/well for C26, and 2000 cells/well for A375, and MiaPaCa-2) and cultured overnight at 37° C. in 5% CO2. Inhibitors were serially diluted in 100% DMSO and subsequently added to cells to reach a final concentration of 0.25% DMSO. The cells were incubated for 4 days in the presence of test compounds in cell growth media (DMEM with 10% fetal bovine serum, 2 mM glutamine for C26, and MiaPaCa-2, and RPMI with 10% fetal bovine serum, 2 mM glutamine for A375). Cell proliferation was quantitated using the ATP lite cell proliferation kit (Packard). Columns 4-6 show the concentration of compounds required to induce 50% cell death (IC50 in μM) of […]. With “+” meaning 3 μM<IC50≦10 μM and “++” IC50≦3 μM and “n.d.” means not determined. Few compounds were also tested on human melanoma cell MeI5.

Murine colon C26 cells = experiment: Tumor cell proliferation assay (ATP Lite), C26; assay type: cell-based; details: Mus musculus, 96 h, 4 days
Method: as §1, §2

[2] = tested on: human pancreatic MiaPaCa-2 cells; experiment: Tumor cell proliferation assay (ATP Lite), MiaPaCa-2; assay type: cell-based; details: MIA PaCa-2, 96 h, 4 days
Method: as §1, §2

Sequence of human MEK1 (Q02750 whole entry): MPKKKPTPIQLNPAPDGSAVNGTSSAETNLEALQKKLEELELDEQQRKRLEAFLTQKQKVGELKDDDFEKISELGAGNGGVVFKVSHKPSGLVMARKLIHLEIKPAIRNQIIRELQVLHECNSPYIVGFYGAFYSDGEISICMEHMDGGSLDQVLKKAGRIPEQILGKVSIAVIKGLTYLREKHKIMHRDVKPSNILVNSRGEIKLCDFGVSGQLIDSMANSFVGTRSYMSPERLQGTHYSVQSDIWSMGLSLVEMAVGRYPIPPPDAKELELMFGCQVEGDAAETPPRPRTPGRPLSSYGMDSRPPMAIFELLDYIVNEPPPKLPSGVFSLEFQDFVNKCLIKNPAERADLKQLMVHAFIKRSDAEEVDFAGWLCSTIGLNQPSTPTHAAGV

Compound: O=C(N[C@H]1CCCC[C@@H]1O)c1ccncc1Nc1ccc(I)cc1F (relative stereo) [Example 113, 3-(2-Fluoro-4-iodo-phenylamino)-N-(trans-2-hydroxy-cyclohexyl)-isonicotinamide]
- IC50 (human MEK1): < 1 µM

Compound: O=C(O)c1ccncc1Nc1ccc(Cl)cc1Cl [Example 1, 3-[(2,4-Dichlorophenyl)amino]isonicotinic acid]
- IC50 (human MEK1): < 1 µM

Compound: Cc1cc(Br)ccc1Nc1cnccc1C(=O)O [Example 2, 3-[(4-Bromo-2-methylphenyl)amino]isonicotinic acid]
- IC50 (human MEK1): < 1 µM

Compound: Cc1cc(I)ccc1Nc1cnccc1C(=O)O [Example 3, 3-[(4-Iodo-2-methylphenyl)amino]isonicotinic acid]
- IC50 (human MEK1): < 1 µM

Compound: CCONC(=O)c1cc[n+]([O-])cc1Nc1ccc(Br)cc1C [Example 6, 3-[(4-Bromo-2-methylphenyl)amino]-N-ethoxyisonicotinamide 1-oxide]
- IC50 (human MEK1): 1 to 10 µM

Compound: CN(CCO)C(=O)c1ccncc1Nc1ccc(I)cc1F [Example 37]
- IC50 (human MEK1): < 1 µM

Compound: CC1(C)OC[C@H](CONC(=O)c2ccnc(Cl)c2Nc2ccc(I)cc2F)O1 [Example 38, 2-Chloro-N-{[(4R)-2,2-dimethyl-1,3-dioxolan-4-yl]methoxy}-3-(2-fluoro-4-iodo-phenylamino)-isonicotinamide]
- IC50 (human MEK1): 1 to 10 µM

Compound: COc1ccc(-c2cc(C(=O)O)c(Nc3ccc(I)cc3F)cn2)cc1 [Example 52, 5-[(2-fluoro-4-iodophenyl)amino]-2-(4-methoxyphenyl)isonicotinic acid]
- IC50 (human MEK1): 1 to 10 µM

Compound: C#Cc1ccc(Nc2cnccc2C(=O)NOC[C@H](O)CO)c(Cl)c1 [Example 54, 3-(2-Chloro-4-ethynyl-phenylamino)-N-(2,3-dihydroxy-propoxy)-isonicotinamide]
- IC50 [1]: 3 to 10 µM
- IC50 (human MEK1): 1 to 10 µM

Compound: CN(C)c1ccc(-c2cc(C(=O)O)c(Nc3ccc(I)cc3F)cn2)cc1 [Example 57, 2-[4-(dimethylamino)phenyl]-5-[(2-fluoro-4-iodophenyl)amino]-isonicotinic acid]
- IC50 (human MEK1): 1 to 10 µM

Compound: O=C(NC1CCc2ccccc21)c1ccncc1Nc1ccc(I)cc1F (stereo not shown) [Example 59, N-(2,3-dihydro-1H-inden-1-yl)-3-[(2-fluoro-4-iodophenyl)amino]-isonicotinamide]
- IC50 (human MEK1): 1 to 10 µM

Compound: O=C(NC1CCCCC1)c1ccncc1Nc1ccc(I)cc1F [Example 61, N-cyclohexyl-3-[(2-fluoro-4-iodophenyl)amino]isonicotinamide]
- IC50 [1]: 3 to 10 µM
- IC50 (human MEK1): < 1 µM

Compound: CC(C)C(C)NC(=O)c1ccncc1Nc1ccc(I)cc1F (stereo not shown) [Example 62, N-(1,2-dimethylpropyl)-3-[(2-fluoro-4-iodophenyl)amino]-isonicotinamide]
- IC50 [1]: ≤ 3 µM
- IC50 (Murine colon C26 cells): 3 to 10 µM
- IC50 (human MEK1): < 1 µM

Compound: CC1(C)OC[C@@H](CONC(=O)c2ccncc2Nc2ccc(I)cc2F)O1 [Example 63, N-{[(4S)-2,2-dimethyl-1,3-dioxolan-4-yl]methoxy}-3-[(2-fluoro-4-iodophenyl)amino]isonicotinamide]
- IC50 [1]: ≤ 3 µM
- IC50 (human MEK1): < 1 µM

Compound: O=C(NO)c1ccncc1Nc1ccc(I)cc1F [Example 66, 3-[(2-fluoro-4-iodophenyl)amino]-N-hydroxyisonicotinamide]
- IC50 [1]: ≤ 3 µM
- IC50 (human MEK1): < 1 µM

Compound: CC1(C)OC[C@H](CONC(=O)c2cc(Br)ncc2Nc2ccc(I)cc2F)O1 [Example 69, 2-bromo-N-{[(4R)-2,2-dimethyl-1,3-dioxolan-4-yl]methoxy}-5-[(2-fluoro-4-iodophenyl)amino]isonicotinamide]
- IC50 [1]: ≤ 3 µM
- IC50 (Murine colon C26 cells): 3 to 10 µM
- IC50 (human MEK1): < 1 µM

Compound: O=C(O)c1ccncc1Nc1ccc(I)cc1 [Example 73, 3-(4-iodo-phenylamino)-isonicotinic acid]
- IC50 (human MEK1): < 1 µM

Compound: CC(C)CONC(=O)c1ccncc1Nc1ccc(I)cc1Cl [Example 78]
- IC50 [1]: ≤ 3 µM
- IC50 (Murine colon C26 cells): 3 to 10 µM
- IC50 (human MEK1): < 1 µM

Compound: CONC(=O)c1ccncc1Nc1ccc(I)cc1Cl [Example 80, N-methoxy-3-(2-chloro-4-iodo-phenylamino)-isonicotinamide]
- IC50 [2]: 3 to 10 µM
- IC50 [1]: ≤ 3 µM
- IC50 (human MEK1): < 1 µM

Compound: O=C(NOC1CCCCO1)c1ccncc1Nc1ccc(I)cc1F (stereo not shown) [Example 84, 3-[(2-fluoro-4-iodophenyl)amino]-N-(tetrahydro-2H-pyran-2-yloxy)-isonicotin-amide]
- IC50 [1]: ≤ 3 µM
- IC50 (Murine colon C26 cells): 3 to 10 µM
- IC50 (human MEK1): < 1 µM

Compound: CC1(C)OC[C@H](CONC(=O)c2cc[n+]([O-])cc2Nc2ccc(I)cc2F)O1 [Example 89, N-(2,2-Dimethyl-[1,3]dioxolan-4-ylmethoxy)-3-(2-fluoro-4-iodo-phenylamino)-1-oxy-isonicotinamide]
- IC50 (human MEK1): 1 to 10 µM

Compound: O=C(NCc1cccc(I)c1)c1ccncc1Nc1ccc(I)cc1F [Example 94, 3-[(2-fluoro-4-iodophenyl)amino]-N-(3-iodobenzyl)isonicotin-amide]
- IC50 [1]: 3 to 10 µM
- IC50 (human MEK1): < 1 µM

Compound: Cc1nccc(C(=O)O)c1Nc1ccc(I)cc1F [Example 95, 3-(2-Fluoro-4-iodo-phenylamino)-2-methyl-isonicotinic acid]
- IC50 (human MEK1): < 1 µM

Compound: O=C(NOCc1c(F)c(F)c(F)c(F)c1F)c1ccncc1Nc1ccc(I)cc1F [Example 103, 3-[(2-fluoro-4-iodophenyl)amino]-N-[(pentafluorobenzyl)oxy]-isonicotinamide]
- IC50 (human MEK1): < 1 µM

Compound: COc1cccc(NC(=O)c2ccncc2Nc2ccc(I)cc2F)c1 [Example 104, 3-[(2-fluoro-4-iodophenyl)amino]-N-(3-methoxyphenyl)-isonicotinamide]
- IC50 (human MEK1): < 1 µM

Compound: O=C(NCc1cc(F)cc(C(F)(F)F)c1)c1ccncc1Nc1ccc(I)cc1F [Example 105, 3-[(2-fluoro-4-iodophenyl)amino]-N-[3-fluoro-5-(trifluoromethyl)-benzyl]isonicotinamide]
- IC50 (human MEK1): < 1 µM

Compound: O=C(NCc1cccc(O)c1)c1ccncc1Nc1ccc(I)cc1F [Example 106, 3-[(2-fluoro-4-iodophenyl)amino]-N-(3-hydroxybenzyl)-isonicotinamide]
- IC50 (human MEK1): < 1 µM

Compound: CCOC(CCCNC(=O)c1ccncc1Nc1ccc(I)cc1F)OCC [Example 107, N-(4,4-diethoxybutyl)-3-[(2-fluoro-4-iodophenyl)amino]-isonicotinamide]
- IC50 (human MEK1): < 1 µM

Compound: O=C(NCc1ccc(F)cc1)c1ccncc1Nc1ccc(I)cc1F [Example 108, N-(4-Fluoro-benzyl)-3-(2-fluoro-4-iodo-phenylamino)-iso-nicotinamide]
- IC50 (human MEK1): < 1 µM

Compound: O=C(NCC(F)(F)F)c1ccncc1Nc1ccc(I)cc1F [Example 109, 3-(2-Fluoro-4-iodo-phenylamino)-N-(2,2,2-trifluoro-ethyl)-isonicotinamide]
- IC50 (human MEK1): < 1 µM

Compound: O=C(NC1(CO)CCCC1)c1ccncc1Nc1ccc(I)cc1F [Example 110, 3-(2-Fluoro-4-iodo-phenylamino)-N-(1-hydroxymethyl-cyclo-pentyl)-isonicotinamide]
- IC50 (human MEK1): < 1 µM

Compound: Cc1cc(C(=O)O)c(Nc2ccc(I)cc2F)cn1 [Example 111, 5-[(2-fluoro-4-iodophenyl)amino]-2-methylisonicotinic acid]
- IC50 (human MEK1): < 1 µM

Compound: NC(=O)[C@H](CO)NC(=O)c1ccncc1Nc1ccc(I)cc1F [Example 112, N-(1-(S)-Carbamoyl-2-hydroxy-ethyl)-3-(2-fluoro-4-iodo-phenylamino)-isonicotinamide]
- IC50 (human MEK1): < 1 µM

Compound: CCC(CO)(CO)NC(=O)c1ccncc1Nc1ccc(I)cc1F [Example 114, N-(1,1-Bis-hydroxymethyl-propyl)-3-(2-fluoro-4-iodo-phenyl-amino)-isonicotin-amide]
- IC50 (human MEK1): < 1 µM

Compound: O=C(NCCCN1CCNCC1)c1ccncc1Nc1ccc(I)cc1F [Example 116, 3-(2-Fluoro-4-iodo-phenylamino)-N-(3-piperazin-1-yl-propyl)-isonicotinamide]
- IC50 (human MEK1): < 1 µM

Compound: COc1ccc(Nc2cnccc2C(=O)O)cc1 [Example 118, 3-(4-Methoxy-phenylamino)-isonicotinic acid]
- IC50 (human MEK1): 1 to 10 µM

Compound: O=C(O)c1ccncc1Nc1ccc(SC(F)(F)F)cc1 [Example 119, 3-(4-Trifluoromethylsulfanyl-phenylamino)-isonicotinic acid]
- IC50 (human MEK1): 1 to 10 µM

Compound: CCONC(=O)c1ccncc1Nc1ccc(Br)cc1F [Example 121, 3-[(4-Bromo-2-fluorophenyl)amino]-N-ethoxyisonicotinamide]
- IC50 (human MEK1): < 1 µM

Compound: O=C(O)c1ccnc(Cl)c1Nc1ccc(Br)cc1F [Example 125, 3-(4-Bromo-2-fluoro-phenylamino)-2-chloro-isonicotinic acid]
- IC50 (human MEK1): < 1 µM

Compound: O=c1[nH]nc(-c2ccncc2Nc2ccc(Br)cc2F)o1 [Example 126, 5-[3-(4-Bromo-2-fluoro-phenylamino)-pyridin-4-yl]-3H-[1,3,4]oxadiazol-2-one]
- IC50 (human MEK1): 1 to 10 µM

Reference: patent publication US8524911B2, “3-arylamino pyridine derivatives” (Merck Serono SA, priority 2004, dated 2013)
